Several values for one entry are separate records, joined by “and”; a condition that tells them apart may be missing. Equal entries are not always repeated.

Test [1] concerns T. brucei 427 bloodstream form mitochondria. Nature of the test: Mitochondrial membrane potential in T. brucei (TMRE, flow cytometry). The class given is cell-based, Trypanosoma brucei. As to conditions: 24 h at 3× EC50. Here is the method:
The mitochondrial membrane potential of T. brucei 427 bloodstream form was assessed using the fluorescent probe TMRE (Thermo Fisher Scientific) as described in ref . […] Untreated cells and cells preincubated with a 50 μM CCCP uncoupler for 30 min were used as negative and positive controls, respectively. Approximately 1 × 10^6 cells were incubated with 60 nM TMRE for 30 min, washed 1× with sterile PBS, and 5,000 events were measured on a Guava EasyCyte 8HT flow cytometer (Luminex) using a 488 nm excitation laser and a 583/26 nm detector. Median fluorescence was plotted against an untreated culture using Prism 8.0 (GraphPad Software), and statistical significance was determined using RM one-way ANOVA with Geisser–Greenhouse correction. The experiment was performed in three biologically independent replicates.

The subject of a further test is T. gondii mitochondrion. Nature of the test: Toxoplasma immunofluorescence assay of organelle morphology. It is filed as cell-based, Toxoplasma gondii. As to conditions: 24 h at 3× EC50; for morphology of the T. gondii mitochondrion: DFX at 60 nM. Here is the method:
For IFAs to assess organelle morphology, coverslips seeded with HFFs were infected with T. gondii tachyzoites, and 3 h later, compounds were added (at 3 times their respective EC50). Intracellular parasites and host cell monolayers were then fixed 24 h later with 4% (w/v) PFA (diluted in PBS) for 20 min. After fixation, cells were permeabilized with 0.3% (v/v) Triton X-100 (diluted in PBS) for 10 min. Coverslips were blocked with 2% (w/v) bovine serum albumin (BSA) for 1 h prior to immunolabeling with a primary antibody for 1 h. After 3 washes in PBS, a corresponding secondary antibody was incubated for 1 h. Coverslips were then incubated with 1 μg/mL of Hoechst stain for 5 min before 3 washes in PBS and, finally, mounted using Immu-Mount (Thermo Fisher) onto microscope slides. Primary antibodies used were prepared in 2% BSA (diluted in PBS) and used at the following concentrations: the apicoplast was stained using rabbit anti-PDH-E2 (1:500), the mitochondrion was stained using mouse anti-F1β ATPase (1:1000, gift of P. Bradley). Anti-mouse and anti-rabbit secondary antibodies were all from Thermo Fisher and were diluted at 1:4000. Image acquisition was performed with a Zeiss Axio Observer inverted microscope equipped with a Zeiss Axiocam 712 camera and 63×/1.4 or 100×/1.4 Oil Plan Achromat objectives. Images were processed with Zen Blue v3.6 software (Zeiss). Z-stack acquisitions were processed by a maximum-intensity orthogonal projection. Adjustments of brightness and contrast were applied uniformly, and paired images were acquired with the same exposure time. Quantifications of mitochondrial morphology were performed by microscopic observation of a series of at least 100 parasites, and data from three independent biological replicates was acquired and plotted using Prism 8.0 (GraphPad Software). Statistical significance was determined using one-way ANOVA with Tukey’s multiple-comparison test.

Test [2] has as its system Trypanosoma gambiense bloodstream forms. Briefly: Drug sensitivity assay, dose–response curves, T. gambiense. It is filed as cell-based. Particulars: for EC50: bloodstream forms, mean, n ≥ 3; for T. gambiense selectivity: relative to fibroblasts. The source says: (§1) Human fibroblasts, T. brucei, T. gambiense, P. falciparum, L. mexicana, and B. divergens were cultivated as described previously, and dose–response curves were obtained by their cultivation on 96 well plates in a 2-fold seriel dilution of the appropriate drug.

For test [3], the system named is Babesia divergens intracellular stages. Nature of the test: Drug sensitivity assay, dose–response curves, B. divergens. It is filed as cell-based. Particulars: for EC50: intracellular stages, mean, n ≥ 3; for B. divergens selectivity: relative to fibroblasts.
Source text: as §1

In test [4] the test system is T. brucei 427 bloodstream forms, protein-bound iron. Nature of the test: Iron distribution in T. brucei (55Fe, blue native electrophoresis, phosphor imaging). It is filed as cell-based, Trypanosoma brucei. Particulars: T. brucei preincubated with 55Fe; 8 h exposure; EC90 concentrations for 14 and 15. As to the method: The assay was performed as described in ref . T. brucei 427 bloodstream forms were grown in HMI-9 medium supplemented with 0.5 μM ^55Fe (29 600 MBq mg^–1) in the form of ferric citrate (1:20) and incubated for 24 h. […] Untreated cells were used as a control. After incubation, the cells were harvested by centrifugation and washed three times with NaCl–HEPES buffer (140 mM NaCl, 10 mM HEPES, pH 7.4). Cells were lysed by sonication in NaCl–HEPES buffer containing 1% digitonin and cOmplete EDTA-free protease inhibitor cocktail (Roche). Gels were vacuum-dried, autoradiographed for 5 days using a BAS-IP TR 2025 E tritium storage phosphor screen (GE Healthcare), and visualized with Typhoon FLA 7000 (GE Healthcare).

Test [5] has as its system Leishmania mexicana axenic amastigotes. Briefly: Drug sensitivity assay, dose–response curves, L. mexicana. As to conditions: for EC50: axenic amastigotes, mean, n ≥ 3; for L. mexicana selectivity: relative to fibroblasts. The class given is cell-based.
Source text: as §1

Test [6] relates to Toxoplasma tachyzoites mitochondrion. Briefly: Toxoplasma mitochondrial membrane potential (MitoTracker, cytometry and microscopy). It is filed as cell-based, Toxoplasma gondii. Particulars: 24 h at 3× EC50; for T. gondii mitochondrial membrane potential, flow cytometric quantification of Mitotracker labeling: DFX at 60 nM; for Mitotracker staining of T. gondii, microscopic observation: FCCP as uncoupler control. Here is the method:
We used the MitoTracker Deep Red FM fluorescent probe (Invitrogen) to assess the mitochondrial membrane potential in Toxoplasma tachyzoites. […] After another 24 h of culture at 37 °C and 5% CO2, Mitotracker labeling was performed as described in the protocol provided by the manufacturer, with a 45 min incubation at 37 °C and 5% CO2 of the reconstituted dye diluted to 1/1000 in culture medium. Parasites were then fixed for 30 min in 4% (w/v) PFA (diluted in PBS), washed twice in PBS, scraped, syringed (with a 25 G needle), filtered on a 40 μm membrane, and resuspended in 1 mL of PBS. Parasites were then analyzed with an Aurora spectral cytometer (Cytek), using a 633 nm excitation laser and a 665 nm detector. 10,000 events were recorded. Mean fluorescence was plotted against vehicle-treated culture parasites using Prism 8.0 (GraphPad Software), and statistical significance was determined using one-way ANOVA with Tukey’s multiple-comparison test. The experiment was performed for three biologically independent replicates. For the membrane depolarization control, parasites were treated with 10 μM FCCP for 30 min prior to and during incubation with the Mitotracker dye.
Intracellular parasites and the host cell monolayer were then fixed 24 h later with 4% (w/v) PFA (diluted in PBS) for 20 min, and after fixation, cells were permeabilized with 0.3% (v/v) Triton X-100 (diluted in PBS) for 10 min. Costaining with the anti-F1β ATPase mitochondrial marker was performed as described below.

The test system of a further test is Human BJ Fibroblast. Nature of the test: Drug sensitivity assay, dose–response curves, human BJ fibroblasts. It is filed as cell-based. As to conditions: mean, n ≥ 3.
Source text: as §1

For test [7], the system named is Plasmodium falciparum intracellular stages. Nature of the test: Drug sensitivity assay, dose–response curves, P. falciparum. The class given is cell-based. As to conditions: for EC50: intracellular stages, mean, n ≥ 3; for P. falciparum selectivity: relative to fibroblasts.
Source text: as §1

A further test has as its system T. gondii tachyzoites. As to conditions: 24 h treatment at 3× EC50.
The test system of test [8] is Toxoplasma gondii tachyzoites (RH strain), intracellular stages. Briefly: T. gondii lytic cycle plaque assay in HFF monolayers. It is filed as cell-based. Particulars: for EC50: intracellular stages, plaque assay in HFFs, 7 days, n ≥ 3; for T. gondii selectivity: relative to fibroblasts. As to the method:
T. gondii tachyzoites of the RH strain were routinely maintained through passages in a human foreskin fibroblasts (HFFs) monolayer (ATCC CRL-1634). HFFs and parasites were cultured in standard Dulbecco’s Modified Eagle Medium (DMEM), supplemented with 5% decomplemented fetal bovine serum (FBS), 2 mM L-glutamine, 100 U/mL penicillin, and 100 μg/mL streptomycin (Gibco) at 37 °C and with 5% CO2 in an incubator with a controlled atmosphere.
The lytic cycle of T. gondii tachyzoites was assessed by a plaque assay as described previously. Briefly, tachyzoites were allowed to invade monolayers of HFFs for 3 h before addition of the compounds or the DMSO vehicle and were subsequently cultivated for 7 days at 37 °C and 5% CO2. They were then fixed with 4% (w/v) paraformaldehyde (PFA, diluted in phosphate-buffered saline (PBS)) for 20 min and stained with a 0.1% crystal violet solution (V5265, Sigma-Aldrich), washed, and air-dried before imaging under an Olympus MVX10 microscope.
Figure S1. EC50 determination of selected compounds in Toxoplasma.
B) EC50 curves based on plaque
area measured from three independent plaque assays. Data are mean ± standard deviation. C)
vacuoles were counted for each con dition. Values represented are mean ± standard deviation of […]

Test [9] has as its system Trypanosoma brucei bloodstream forms. Nature of the test: Drug sensitivity assay, dose–response curves, T. brucei. As to conditions: for EC50: bloodstream forms, mean, n ≥ 3. It is filed as cell-based.
Source text: as §1

Experimental for T. gondii tachyzoites: Parasites were allowed to invade an HFF monolayer on coverslips for 3 h before addition of the compounds (at 3 times their respective EC50) and left to grow for 24 h before being fixed and performing parasites immunodetection was by IFA with a mouse anti-SAG1 antibody, as described previously. The number of parasites per vacuole was counted and scored. Independent experiments were conducted 3 times, and 200 random vacuoles were counted for each condition.
Replication assay of T. gondii tachyzoites, which were allowed to invade HFF -coated coverslips,
then treated for 24 h with the compounds at 3 times the EC50 or DMSO vehicle, after which number
of parasites per vacuole was quantified for each condition and expressed as a percentage, 200
the compounds, using two -way ANOVA with Dunnett’s multiple comparison test.

Regarding `O=C(NCCCCCCCCCC[P+](c1ccccc1)(c1ccccc1)c1ccccc1)c1ccc(-n2nc(-c3ccccc3O)nc2-c2ccccc2O)cc1.[Cl-]` [compound 14, triphenylphosphine-C10-DFX], in [1], the “mitochondrial membrane potential of T. brucei (relative to untreated)” value was “less than 50%”. In addition, in the test with T. gondii mitochondrion, the “quantified mitochondrial morphology change (fragmented/collapsed) by IFA” value is “caused the collapse of most T. gondii mitochondria”. Also, the “morphology of the T. gondii mitochondrion” value with T. gondii mitochondrion is “altered the morphology of the organelle”. Further, the EC50 in test [2] came out at 10.4 nM; in [3], 41.2 nM; in test [5] it was 52 nM; in the test on Human BJ Fibroblast, 1710 nM; in [7], 54.8 nM; in test [8], 17 nM. The EC50 in test [9] was 4.2 nM; in test [9] (listed as mitoDFX) it was 4 nM. The T. gambiense selectivity in test [2] turned out to be 165. For the same compound, the B. divergens selectivity in test [3] stood at 42. Besides, the “change in overall protein-bound iron distribution” value in [4] was “neither mitoDFX nor the nonchelating compound 15 did cause any detectable change”. This compound registered a L. mexicana selectivity in test [5] of 33. Further, the “T. gondii mitochondrial membrane potential, flow cytometric quantification of Mitotracker labeling” value in [6] is recorded as “most impactful”. Moreover, in test [6], the “Mitotracker staining of T. gondii, microscopic observation” value is “strong decrease in Mitotracker staining”. In test [7], this compound gave a P. falciparum selectivity of 31. The “impact on T. gondii replication (parasites per vacuole)” value in the test with T. gondii tachyzoites was “particularly strong”. The T. gondii selectivity in test [8] is on record as 101. In test [9] (relative to human BJ fibroblast EC50, listed as mitoDFX), this compound yielded a T. brucei selectivity of over 300.

Regarding `CC(C)(C)OC(=O)NNc1ccc(C(=O)NCCCCCCCCCC[P+](c2ccccc2)(c2ccccc2)c2ccccc2)cc1.[Cl-]` [compound 15, triphenylphosphine-C10-NHCOBocFenylhydrazine], in test [1], the “mitochondrial membrane potential of T. brucei (relative to untreated)” value is “less than 50%”. The “morphology of the T. gondii mitochondrion” value in the test on T. gondii mitochondrion is “altered the morphology of the organelle”. In test [2], the response was half-maximal at 60 nM (EC50) and the T. gambiense selectivity was 122. In test [3], this compound yielded an EC50 of 76.2 nM and a B. divergens selectivity of 96. Besides, in [4], the “change in overall protein-bound iron distribution” value was “neither mitoDFX nor the nonchelating compound 15 did cause any detectable change”. Further, in [5], the EC50 was determined as 348 nM and the L. mexicana selectivity turned out to be 21. In addition, in test [6], the “T. gondii mitochondrial membrane potential, flow cytometric quantification of Mitotracker labeling” value is “most impactful” and the “Mitotracker staining of T. gondii, microscopic observation” value is recorded as “strong decrease in Mitotracker staining”. Also, a half-maximal response in the test with Human BJ Fibroblast (EC50) required 7400 nM. In test [7], the response was half-maximal at 311 nM (EC50) and the P. falciparum selectivity worked out at 23. In test [8], the EC50 was found to be 350 nM and the T. gondii selectivity amounted to 21. For the same compound, the EC50 in test [9] is 37 nM and 37.5 nM.

Usually EC50 stands for the concentration at which the effect is half-maximal. The low end stands for higher potency in that assay, the high end for lower potency in that assay.

For the origin of these results see article PMC12797238 (ACS Infectious Diseases, 2025).
